Data published in patent US20060160897A1, “Topical Use of Valproic Acid for the Prevention or Treatment of Skin Disorders” (priority 2003, published 2006).

How the values were obtained:
HaCaT cells = assay: MTT assay, growth of human immortalized keratinocytes; format: cell-based
Method: MTT assay: This calorimetric assay detects the formation of formazan which is proportional to the number of cells present. Tissue culture medium containing drugs was removed and 200 μl of DME containing 2 mg/ml MTT ((3-4, 5-dimethyl thiazol-2yl) 2,5-diphenyltetrazolium bromide) was added to each well. 96-well plates were incubated at 37 ° C., and 10% CO2 for 30 minutes. Medium containing MTT was then removed and the cells were washed once with PBS. Following removal of the PBS, 200 μL DMSO was added to each well and plates were placed on a rotating platform shaker for 5 minutes. Results were obtained by reading the absorbance at a wavelength of 550 nm using a spectrophotometer. Results are expressed as percentages setting the control as 100%.
FIG. 1 graphically depicts the results of growth assays performed on human immortalized keratinocytes (HaCaT cells), treated for three days with the indicated compounds. Drugs were added on the same day of plating (day 0). The MTT assay (to measure cell proliferation) was carried out on day 3. Various combinations of the drugs were used in the growth assays.
Cells were plated in wells on day 0. […] The MTT assay was carried out on day 3. Various combinations of the drugs were also used in the growth assays. […] Thus, the combinatorial activity of these two drugs must be explained via synergistic activity of this treatment.
Drugs were added on the same day of plating (day 0). The MTT assay (to measure cell proliferation) was carried out on the third day. […] Thus, this combinatorial activity of these two drugs must be explained via synergistic activity of this treatment.

[1] = In vitro skin permeation assay, Franz type diffusion cell with SCE membranes; format: in vitro ADME, human; settings: sodium valproate 3% (w/w) in Sepigel gel, SCE membranes 0.75 cm^2, 10 h, 35° C.; FIG. 6
Method: The resulting gel was stored at room temperature for 24 h prior to use.
In vitro skin permeation assay: The analyses were carried out using a Franz type glass diffusion cell (LGA, Berkeley, Calif., USA) assembled with membranes carrying stratum corneum and epidermis (SCE). Adult human skin samples (mean age 29±5 years) were obtained from abdominal reduction surgery. Subcutaneous fat was trimmed and the skin samples were immersed in distilled water at 60° C. for 1 min; then stratum corneum and epidermis (SCE) were peeled off The SCE samples were dried at room temperature in a desiccator maintained at approximately 25% relative humidity. […] Skin barrier integrity of the SCE membranes used in this protocol was assessed by determining their tritiated water permeability coefficient (Kp). […] All samples were analyzed for sodium valproate contents by means of an HPLC with spectrofluorimetric detection. The results were expressed as total amount permeated (mg).
Quantitative determination of Sodium Valproate: To determine sodium valproate, samples were derivatized with 4-bromomethyl-7-methoxycoumarin (BMMC). […]
Adult human skin samples (skin surface area was 0.75 cm^2) were prepared as described in the methods section. […] All samples were analyzed for sodium valproate contents by means of an HPLC with spectrofluorimetric detection. The results were expressed as total amount permeated (mg).

inflammatory cytokines [2] = assay: Semiquantitative RT-PCR of cytokine mRNA, PMA/Ion stimulated peripheral blood lymphocytes; format: cell-based, human; settings: PBLs preincubated 2 hours, PMA/Ion 24 hours; FIGS. 12B, 13
Method: Monocyte and macrophage depleted peripheral blood mononuclear cells were obtained from consenting adults via separation using Ficoll-Hypaque. The peripheral blood mononuclear cells (PBMC) fraction was washed and seeded in 9 cm petri dishes. After an incubation of 2 hours at 37° C. to remove most of the monocytes, macrophages, and B-cells, the non-adherent cells were collected and cultured in 175 cm^2 flasks for 2 days. Cells were harvested and adjusted to 3 million cells per ml. Aliquots of 500 μl were transferred to each well of 24-well flat bottom plates. Peripheral blood lymphocytes (PBL's) were treated with various concentrations of HDAC inhibitors as indicated. After a 2 hours incubation time at 37° C. cells were stimulated with phorbol 12-myristate 13-acetate (PMA)/ionomycin (Ion) or activated via T cell receptor (TCR/CD3) complex with 10 μg/ml anti-CD3 mAb (OKT3) and 2.5 μg/ml anti-CD28 mAb. After 24 hours at 37° C. the supernatant was removed and frozen for cytokine assays. Cell pellets were lysed and total RNA was isolated using the RNeasy mini kit from Qiagen.
One microgram of total RNA was transcribed to cDNA by standard methods using reverse transcriptase and an oligo-dT primer (Invitrogen). For semiquantitative PCR, 2 μl of cDNA was amplified by PCR using specific primers. Primers for PCR were synthesized by MWG and are as follows: […]

IL-2 and TNF-α = assay: ELISA of IL-2 and TNF-α, blood cells of VPA treated patient stimulated with CD3/CD28; format: in vivo, human; settings: CD3/CD28 stimulated 24 hours
Method: The cells were either left unstimulated or stimulated with CD3 and CD28 antibodies. After 24 hours at 37° C. the supernatant was collected and the secretion of IL-2 and TNF-α was quantified by ELISA (R&D Systems) (FIGS. 19A and B).

inflammatory cytokines [3] = assay: RT-PCR of cytokine mRNA, blood cells of VPA treated patient stimulated with CD3/CD28; format: in vivo, human
Method: Total RNA from unstimulated and CD3/CD28 stimulated cells was isolated using the RNeasy mini kit (Qiagen). One microgram of total RNA was converted to cDNA by standard methods using reverse transcriptase and an oligo-dT primer (Invitrogen). For semiquantitative PCR, 2 μl of cDNA were amplified by PCR using the specific primers as described above (FIG. 19C).

[4] = starting at 24 hours of VPA treatment

CCCC(CCC)C(=O)O [VPA, 2-propyl-pentanoic acid]
cell growth (MTT assay) (HaCaT cells; MTT on day 3, combinations VPA 1 mM + Retinoic Acid 1 or 2 μM, FIG. 2): inhibited growth | cell growth (MTT assay) (HaCaT cells; MTT on the third day, 5 μM or 10 μM 5-FU and 1 mM VPA, FIG. 3): inhibited growth | cell growth (MTT assay) (HaCaT cells; treated three days, MTT on day 3, combinations VPA 1 mM + Tazarotene 1 or 2 μM, FIG. 1): inhibited cell growth | permeation of human skin (total amount permeated) [1]: permeates the skin in a time dependent manner | IL-4 mRNA transcripts (inflammatory cytokines [2]): significantly reduced | IL-6 mRNA transcripts (inflammatory cytokines [2]): decreased IL-6 mRNA back to the level seen in the unstimulated sample | IL-2 in culture supernatant (ELISA) (IL-2 and TNF-α): modulates the expression | TNF-α in culture supernatant (ELISA) (IL-2 and TNF-α): modulates the expression | IL-2 mRNA transcripts (inflammatory cytokines [3]; CD3/CD28 stimulated): decrease | TNF-α mRNA transcripts (inflammatory cytokines [3]; CD3/CD28 stimulated): decrease | IFN-γ mRNA expression (inflammatory cytokines [3]; [4]): significantly reduced | IL-4 mRNA expression (inflammatory cytokines [3]; [4]): significantly reduced
